The test system of the experiment is HeLa cells. The experiment can be described thus: Assay of cytoskeletal (actin) rearrangement, fluorescence microscopy. The note with it: 60 minutes, FIG. 11. It counts as cell-based. How it is done:
FIG. 10 is a fluorescence microscopy analysis showing the effects of FCIGRL (SEQ ID NO:1) and F-(Allyl)GIGRL (SEQ ID NO:2) on actin rearrangement in HeLa cells after 15 minutes and 60 minutes.
Gliadin treated with the peptidases pepsin and trypsin (termed PT-gliadin or PTG) induces a cytoskeletal arrangement in CaCo2 cells grown in monolayers. The rearrangement can be visualized using a Nikon-TE2000 epifluorescence microscope and a 40× objective and Alexa Fluor 555 conjugated phalloidin (Invitrogen, Carlsbad, Calif.), which binds specifically to F-actin. Exposure times were identical for control and agonist treated samples. The figures were generated using Adobe Photoshop CS2 v 9.0.2. The concentration of agonist was as indicated. Tight junction agonists can be identified by their ability to induce the cytoskeletal rearrangement as shown by the effects of peptide FCIGRL, a known tight junction agonist. FIGS. 3-6 and 8-11 show the cytoskeletal rearrangements induced by exemplary tight junction agonists of the invention, including with respect to the distribution of F-actin and the tight junction protein ZO-1.

Turning to “Phe−AllylGly−Ile−Gly−Arg−Leu−OH [SEQ ID NO: 2]”, the “actin rearrangement in HeLa cells” value is “actin cytoskeletal rearrangement to the borderline of cells”.

For the origin of these results see patent US8557763B2, “Synthetic peptides that enhance tight junction permeability” (Alba Therapeutics Corporation, priority 2007, dated 2013).
